From patent US10632101B2, “Methods and compositions for supporting endogenous systems related to life span” (USANA Health Sciences, Inc., priority 2016, dated 2020)

Tests used:
Nrf2 = Nrf2 signaling fluorescent reporter assay in human retinal epithelial cell line; assay type: cell-based
Procedure: The assays were carried out with a fluorescent reporter assay that utilized a human retinal epithelial cell line. The assays also included validation by RT-PCR (reverse transcription polymerase chain reaction) of Nrf2 target genes. The human retinal epithelial cell line was purchased from ATCC (American Type Cell Culture, Manassas, Va.) and was configured to function as a fluorescent reporter assay. Test solutions of each of the alpha lipoic acid, resveratrol, curcumin, EGCG, Olivol®, rutin, quercetin, and hesperetin were prepared by serial dilution. Control solutions were also prepared. Positive control solutions of a known Nrf2 agonist, L-sulphoraphane was also prepared. Each test solution was then assayed for Nrf2 signaling activity using the fluorescent reporter assay and compared to control assays. The positive control solutions were also tested.

mTOR = molecular target: T1, mTOR (Homo sapiens, UniProt P42345); conditions: cited from earlier work
T1 construct: host or cells: isolated cells in culture (not specified)

[1] = system: NF-κB reporter cells (HEK293); assay: Live cell multiplex read-out in the NF-κB antagonist assay; assay type: cell-based, human
Procedure: Various receptor assays were carried out for test compounds corresponding to ingredients of the nutritional supplement composition. In general, the receptor assays utilized reporter cells that either expressed a native receptor or a receptor hybrid. The receptor hybrids were engineered so that the native N-terminal DNA binding domain (DBD) was replaced with a yeast Gal4 DBD. The reporter cells expressed a hybrid receptor comprising either the native receptor (Nrf2 and NF-κB) or the N-terminal Gal4 DNA binding domain fused to the ligand binding domain of the specific human nuclear receptor (PPARα, PPARδ, and PPARγ). The reporter gene (e.g., firefly luciferase) was functionally linked to either upstream receptor-specific response elements (GRE) or the Gal4 upstream activation sequence (UAS). A summary of the receptors, the reporter cells used for each particular receptor assay, and the reference compounds used to confirm performance of the receptor assays are indicated below in Table 4.
A vehicle control was prepared. […] After incubation, fluorescence was measured to determine a relative number of live cells per test well.

human NF-κB = assay: NF-κB reporter cell assay, antagonist mode; assay type: cell-based; conditions: 2.54 μg/ml
C. elegans strain CB5586 = assay: Phenotypic lifespan screening in C. elegans; assay type: in vivo
Procedure: Dilutions of the test formulations were applied to individual populations of C. elegans and the lifespan of each population was monitored. Any changes in the lifespan of an individual population compared to a control population were recorded and correlated to the respective test formulation (N356 or N357) and the respective dilution (0.1 mg/ml, 1 mg/ml, and 10 mg/ml).
The N256 and N357 formulations were each prepared as individual 100 mg/ml stock solutions in dimethyl sulfoxide (DMSO). Serial dilutions of each stock solution were then prepared at 0.1 mg/ml, 1 mg/ml, and 10 mg/ml in DMSO. Control solutions of DMSO only were also prepared. Synchronous aged adult populations of C. elegans strain CB5586 worms were prepared. The CB5586 strain comprises a pharyngeal GFP (green fluorescent protein) tag and a mutation in the bus-5 gene. The pharyngeal GFP tag allows for fluorescent images of the worm populations to be taken. The mutation in the bus-5 gene causes the loss of normal cuticle antigens that permits the cuticle of the worms to become permeable to the test formulations and allow direct uptake of the test formulations to avoid interaction of the test formulations with protective mechanisms of the gut channel. Each serial dilution of each test formulation was added to a separate population of the prepared worms. The control solutions were also added to separate populations of the prepared worms. The populations of the prepared worms were then maintained on standard nematode growth media (NGM) agar plates at 20° C. with sufficient food (Escherichia coli strain OP-50).
Each worm population was then monitored by fluorescent imaging to determine the number of living and dead worms as a function of time. The fluorescent imaging was analyzed by software that recognized and counted worms based on their fluorescent intensity compared to background fluorescence. […] The ability to distinguish between living and dead worms allowed the number of living worms and a cumulative number of dead worms to be monitored against time. Worm populations from a selection of fluorescent images were manually checked to verify that the software had accurately counted the number of living and dead worms.
The counts of the living and dead worms as a function of time were then analyzed for each of the worm populations and used to prepare Kaplan-Meier survival curves and associated statistics for each of the worm populations. […] The median lifespan is shown as the length of time after the last mitotic division that 50% of the test population remains viable when compared to the control population. The maximum lifespan extension is shown as the length of time after the last mitotic division that 5% of the test population remains viable when compared to the control population.
The counts of the living and dead worms as a function of time and the Kaplan-Meier survival curves and the associated statistics were then analyzed for each of the worm populations. The analysis included determining mean and median lifespan. The analysis included a non-parametric test, the Log-Rank test, which compares two survival functions for the overall lifespan assay and provides a reliable p-value summarizing the whole experiment. The analysis also included Fisher's Exact Test that calculated the significance of survival function comparisons at multiple specific time points throughout the experiment, rather than for the overall lifespan. The results of the analysis are shown below in Tables 10-17.
Phenotypic screening was carried out as described in EXAMPLE 2 for various individual compounds of the N357 formulation. […] Alpha lipoic acid was sourced from PureBulk™ USA as a racemic mix of R and S stereoisomers and was assigned a sample number of N198. Hesperidin was sourced from Sigma Aldrich at ≥80% purity and was assigned a sample number of N347. […]

SMILES: Oc1ccc(/C=C/c2cc(O)cc(O)c2)cc1 [Resveratrol, 3,5,4′-trihydroxy-trans-stilbene]
- activation of Nrf2 (Nrf2; 10 μM and 1): demonstrated activation of Nrf2
- concentration with more activation of Nrf2 (Nrf2; of 10 μM and 1): 10 µM
- mTOR inhibition (mTOR; applied to isolated cells in culture): inhibit mTOR
- mTOR inhibition, mitophagy and mitochondrial turnover (mTOR): inhibit mTOR, up-regulate mitophagy, and increase the rate of mitochondrial turnover
- NF-κB % Live Cell ([1]; 0.28 μg/ml (resveratrol series)): 100%
- NF-κB % Live Cell ([1]; 0.85 μg/ml): 100%
- NF-κB % Inhibition (human NF-κB): −50%
- Statistically Significant Result (C. elegans strain CB5586; 0.1 mg/ml compared to DMSO control): No statistical difference
- effect on chronological lifespan (C. elegans strain CB5586; 0.1 and 10 mg/ml tested): significant positive and dose-dependent increase of chronological lifespan
